Laboratory results taken from patent publication US5210193A, “Piperazine derivatives” (American Cyanamid Company, priority 1990, dated 1993).
≈ marks a conversion by molar mass, not a printed value. Where two headings read alike, the source gives them in different places.

Assays:
Assay in all cases: in vitro antibacterial MIC, agar plate dilution
Assay type in all cases: cell-based
[1] = test system: Escherichia coli CMC 84-11; conditions: 35° C.
How it was run: (§1)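 MIC, mcg/ml: lowest concentration with no visible growth after 18 h incubation at 35° C. Mueller-Hinton agar dilution plates; ~10^4 CFU inoculum via Steers replicating device.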

[2] = test system: Staphylococcus aureus Smith; conditions: 35° C.
How it was run: as §1

[3] = test system: Proteus rettgeri CMC 84-41; conditions: Providencia rettgeri, CMC8441, 18 h, 35° C., read-out: MIC
How it was run: as §1

[4] = test system: Escherichia coli CMC 84-16; conditions: Escherichia coli, CMC8416, 18 h, 35° C., read-out: MIC
How it was run: as §1

[5] = test system: Streptococcus faecalis VGH 84-65; conditions: 35° C.
How it was run: as §1

[6] = test system: Pseudomonas aeruginosa LL-1244; conditions: 35° C.
How it was run: as §1

[7] = test system: Klebsiella oxytoca MOR 84-28; conditions: MOR8428, 18 hours, 35° C.
How it was run: as §1

[8] = test system: Morganella morganii VGH 84-11; conditions: VGH8411, 18 hours, 35° C., read-out: MIC
How it was run: as §1

[9] = test system: Staphylococcus aureus CMC 83-128; conditions: CMC83128, 18 hours, 35° C., read-out: MIC
How it was run: as §1

[10] = test system: Enterobacter aerogenes VGH 84-36; conditions: Klebsiella aerogenes, VGH8436, 18 hours, 35° C., read-out: MIC
How it was run: as §1

[11] = test system: Staphylococcus aureus CMC 83-127; conditions: Staphylococcus aureus, CMC83127, 18 h, 35° C., read-out: MIC
How it was run: as §1

Escherichia coli NAR 311 = conditions: NAR311, 18 hours, 35° C., read-out: MIC
How it was run: as §1

[12] = test system: Escherichia coli ATCC 25922; conditions: 35° C.
How it was run: as §1

[13] = test system: Staphylococcus aureus ATTC 29213; conditions: 35° C.
How it was run: as §1

[14] = test system: Serratia marcescens F 0-35; conditions: Serratia marcescens, F035, 18 h, 35° C., read-out: MIC
How it was run: as §1

[15] = test system: Klebsiella pneumoniae MOR 84-4; conditions: Klebsiella pneumoniae, MOR844, 18 h, 35° C., read-out: MIC
How it was run: as §1

[16] = test system: Staphylococcus aureus VGH 84-45; conditions: 35° C.
How it was run: as §1

Klebsiella pneumoniae AD = conditions: Klebsiella pneumoniae, 18 h, 35° C., read-out: MIC
How it was run: as §1

[17] = test system: Staphylococcus aureus VGH 84-46; conditions: Staphylococcus aureus, VGH8446, 18 h, 35° C., read-out: MIC
How it was run: as §1

[18] = test system: Serratia marcescens K 84-18; conditions: 35° C.
How it was run: as §1

[19] = test system: Escherichia coli PRNT 311; conditions: PRNT311, 18 hours, 35° C., read-out: MIC
How it was run: as §1

[20] = test system: Enterobacter cloacae VGH 84-37; conditions: Enterobacter cloacae, VGH8437, 18 h, 35° C., read-out: MIC
How it was run: as §1

[21] = test system: Staphylococcus Spp saprophiticus VGH 84-50; conditions: 18 hours, 35° C., read-out: MIC
How it was run: as §1

[22] = test system: Morganella morganii CMC 84-37; conditions: 35° C.
How it was run: as §1

[23] = test system: Pseudomonas aeruginosa VGH 84-4; conditions: 35° C.
How it was run: as §1

[24] = test system: Enterobacter cloacae K 84-10; conditions: Enterobacter cloacae, K8410, 18 h, 35° C., read-out: MIC
How it was run: as §1

[25] = test system: Streptococcus faecalis ATTC 29212; conditions: Enterococcus faecalis, ATTC29212, 18 hours, 35° C., read-out: MIC
How it was run: as §1

[26] = test system: Staphylococcus epidermidis IO 83-58; conditions: IO8358, 18 hours, 35° C., read-out: MIC
How it was run: as §1

[27] = test system: Staphylococcus epidermidis VGH 84-40; conditions: VGH8440, 18 hours, 35° C., read-out: MIC
How it was run: as §1

[28] = test system: Staphylococcus epidermidis CMC 83-135; conditions: CMC83135, 18 hours, 35° C., read-out: MIC
How it was run: as §1

[29] = test system: Streptococcus faecalis UCI 85-19; conditions: Enterococcus faecalis, UCI8519, 18 h, 35° C., read-out: MIC
How it was run: as §1

[30] = test system: Serratia marcescens VGH 84-30; conditions: Serratia marcescens, VGH8430, 18 h, 35° C., read-out: MIC
How it was run: as §1

Escherichia coli LL 311 = conditions: Escherichia coli, LL311, 18 h, 35° C., read-out: MIC
How it was run: as §1

[31] = Escherichia coli, CMC8411, 18 h, read-out: MIC
[32] = Staphylococcus aureus, 18 h, read-out: MIC
[33] = Enterococcus faecalis, VGH8465, 18 h, read-out: MIC
[34] = Pseudomonas aeruginosa, LL1244, 18 h, read-out: MIC
[35] = Escherichia coli, ATCC25922, 18 h, read-out: MIC
[36] = Staphylococcus aureus, ATTC29213, 18 h, read-out: MIC
[37] = Staphylococcus aureus, VGH8445, 18 h, read-out: MIC
[38] = Serratia marcescens, K8418, 18 h, read-out: MIC
[39] = Morganella morganii, CMC8437, 18 h, read-out: MIC
[40] = Pseudomonas aeruginosa, VGH844, 18 h, read-out: MIC

Compound | MIC [3] [mg/L] | MIC [4] [mg/L] | MIC [7] [mg/L] | MIC [8] [mg/L] | MIC [9] [mg/L] | MIC [10] [mg/L] | MIC [11] [mg/L] | MIC (Escherichia coli NAR 311) [mg/L] | MIC [14] [mg/L] | MIC [15] [mg/L] | MIC (Klebsiella pneumoniae AD) [mg/L] | MIC [17] [mg/L] | MIC [19] [mg/L] | MIC [20] [mg/L] | MIC [21] [mg/L] | MIC [24] [mg/L] | MIC [25] [mg/L] | MIC [26] [mg/L] | MIC [27] [mg/L] | MIC [28] [mg/L] | further results
O=C(O)c1cn(C2CC2)c2cc(N3CCNC(c4ccsc4)C3)c(F)cc2c1=O (centres unmarked) [Example 60] | < 0.12 | < 0.12 | < 0.12 | < 0.12 | < 0.12 | < 0.12 | < 0.12 | 0.25 (≈ 0.605 µM) | < 0.12 | < 0.12 | < 0.12 | < 0.12 | < 0.12 | < 0.12 | < 0.12 | < 0.12 | < 0.12 | < 0.12 | < 0.12 | < 0.12 | MIC ([1]; 18 hours): < 0.12 mg/L; MIC ([2]; 18 hours): < 0.12 mg/L; MIC ([5]; 18 hours): < 0.12 mg/L; MIC ([6]; 18 hours): 4 mg/L (≈ 9.67 µM); MIC ([12]; 18 hours): < 0.12 mg/L; MIC ([13]; 18 hours): < 0.12 mg/L; MIC ([16]; 18 hours): < 0.12 mg/L; MIC ([18]; 18 hours): < 0.12 mg/L; MIC ([22]; 18 hours): < 0.12 mg/L; MIC ([23]; 18 hours): 0.5 mg/L (≈ 1.21 µM)
CCn1cc(C(=O)O)c(=O)c2cc(F)c(N3CCN(C)CC3)c(F)c21 [Example 61, 1-Ethyl-6,8-difluoro=1,4-dihydro-7-(4-methyl-1-piperazinyl)-4-oxo-3-quinolinecarboxylic acid] | 0.12 (≈ 0.342 µM) | < 0.015 | 0.06 (≈ 0.171 µM) | 0.06 (≈ 0.171 µM) | 0.5 (≈ 1.42 µM) | 0.03 (≈ 0.0854 µM) | 0.12 (≈ 0.342 µM) | 0.5 (≈ 1.42 µM) | 0.12 (≈ 0.342 µM) | 0.06 (≈ 0.171 µM) | 0.06 (≈ 0.171 µM) | 0.25 (≈ 0.712 µM) | 0.03 (≈ 0.0854 µM) | 0.03 (≈ 0.0854 µM) | 2 (≈ 5.69 µM) | 0.03 (≈ 0.0854 µM) | 2 (≈ 5.69 µM) | 0.25 (≈ 0.712 µM) | 0.25 (≈ 0.712 µM) | 0.25 (≈ 0.712 µM) | MIC [1, 31]: 0.03 mg/L (≈ 0.0854 µM); MIC [2, 32]: 0.25 mg/L (≈ 0.712 µM); MIC [5, 33]: 2 mg/L (≈ 5.69 µM); MIC [6, 34]: 4 mg/L (≈ 11.4 µM); MIC [12, 35]: < 0.015 mg/L; MIC [13, 36]: 0.5 mg/L (≈ 1.42 µM); MIC [16, 37]: 0.12 mg/L (≈ 0.342 µM); MIC [18, 38]: 0.06 mg/L (≈ 0.171 µM); MIC [22, 39]: 0.06 mg/L (≈ 0.171 µM); MIC [23, 40]: 0.5 mg/L (≈ 1.42 µM)
CCCCCCCCCCCCOCC1CN(c2cc3c(cc2F)c(=O)c(C(=O)O)cn3CC)CCN1 (centres unmarked) [Example 74, 7-[3-[(Dodecyloxy)methyl]-1-piperazinyl]-1-ethyl-6-fluoro-1,4-dihydro-4-oxo-3-quinolinecarboxylic acid] | > 256 | > 256 | > 256 | > 256 | 128 (≈ 247 µM) | > 256 | 32 (≈ 61.8 µM) | > 256 | > 256 | > 256 | > 256 | 128 (≈ 247 µM) | > 256 | > 256 | 64 (≈ 124 µM) | > 256 | 128 (≈ 247 µM) | 128 (≈ 247 µM) | 64 (≈ 124 µM) | 128 (≈ 247 µM) | MIC [1, 31]: > 256 mg/L; MIC [2, 32]: 128 mg/L (≈ 247 µM); MIC [5, 33]: 128 mg/L (≈ 247 µM); MIC [6, 34]: > 256 mg/L; MIC [12, 35]: > 256 mg/L; MIC [13, 36]: 128 mg/L (≈ 247 µM); MIC [16, 37]: 128 mg/L (≈ 247 µM); MIC [18, 38]: > 256 mg/L; MIC [22, 39]: > 256 mg/L; MIC [23, 40]: > 256 mg/L
CCCCCCCCCCCCOCC1CN(c2cc3c(cc2F)c(=O)c(C(=O)O)cn3CC)CCN1C (centres unmarked) [Example 75, 7-[3-[(Dodecyloxy)methyl]-4-methyl-1-piperazinyl]-1-ethyl-6-fluoro-1,4-dihydro-4-oxo-3-quinolinecarboxylic acid] | > 256 | > 256 | > 256 | > 256 | > 256 | > 256 | > 256 | > 256 | > 256 | > 256 | > 256 | > 256 | > 256 | > 256 | > 256 | > 256 | > 256 | > 256 | > 256 | > 256 | MIC [1, 31]: > 256 mg/L; MIC [2, 32]: > 256 mg/L; MIC [5, 33]: > 256 mg/L; MIC [6, 34]: > 256 mg/L; MIC [12, 35]: > 256 mg/L; MIC [13, 36]: > 256 mg/L; MIC [16, 37]: > 256 mg/L; MIC [18, 38]: > 256 mg/L; MIC [22, 39]: > 256 mg/L; MIC [23, 40]: > 256 mg/L
CCn1cc(C(=O)O)c(=O)c2cc(F)c(N3CCNC(C(C)(F)F)C3)c(F)c21 (centres unmarked) [Example 117] | 0.5 (≈ 1.25 µM) | – | – | – | – | – | – | – | – | – | – | – | – | – | – | – | – | – | – | – | MIC [1, 31]: 0.12 mg/L (≈ 0.299 µM); MIC [2, 32]: 0.5 mg/L (≈ 1.25 µM); MIC [5, 33]: 8 mg/L (≈ 19.9 µM); MIC [6, 34]: 8 mg/L (≈ 19.9 µM); MIC [12, 35]: 0.06 mg/L (≈ 0.149 µM); MIC [13, 36]: 2 mg/L (≈ 4.98 µM); MIC [16, 37]: 0.5 mg/L (≈ 1.25 µM); MIC [18, 38]: 0.25 mg/L (≈ 0.623 µM); MIC [29]: 8 mg/L (≈ 19.9 µM); MIC [22, 39]: 0.25 mg/L (≈ 0.623 µM); MIC [23, 40]: 4 mg/L (≈ 9.97 µM); MIC [30]: 8 mg/L (≈ 19.9 µM); MIC (Escherichia coli LL 311): 0.12 mg/L (≈ 0.299 µM)
